Test results published in article PMC5218480 (PLoS ONE, 2017).

Tested on: MV-4-11 cells
Test: Gene expression microarray analysis (Affymetrix PrimeView) and GSEA
Assay type: cell-based, human
Set-up: RFU PODN (11730768_x_at) / Fold change /veh PODN (11730768_x_at) / RFU LINC00158 (11744669_a_at) / Fold change /veh LINC00158 (11744669_a_at) / RFU DUSP10 (11751237_a_at) / Fold change /veh DUSP10 (11751237_a_at) / RFU ID3 (11757404_x_at) / Fold change /veh ID3 (11757404_x_at) / RFU PLEKHG5 (11737974_s_at) / Fold change /veh PLEKHG5 (11737974_s_at) / RFU LRRC4B (11730491_at) / Fold change /veh LRRC4B (11730491_at) / RFU GIMAP4 (11747438_a_at) / Fold change /veh GIMAP4 (11747438_a_at) / RFU KRT8 (11758183_x_at) / Fold change /veh KRT8 (11758183_x_at) / RFU CNN1 (11734310_a_at) / Fold change /veh CNN1 (11734310_a_at) / RFU VPS37D (11726825_at) / Fold change /veh VPS37D (11726825_at) / RFU C10orf10 (11716522_x_at) / Fold change /veh C10orf10 (11716522_x_at) / RFU KIR2DL2 /// KIR2DL4 /// KIR2DL5A /// KIR2DL5B /// KIR2DS1 /// KIR2DS2 /// KIR2DS3 /// KIR2DS4 /// KIR3DL3 /// KIR3DL3 /// KIR3DS1 (11738374_at) / Fold change /veh KIR2DL2 /// KIR2DL4 /// KIR2DL5A /// KIR2DL5B /// KIR2DS1 /// KIR2DS2 /// KIR2DS3 /// KIR2DS4 /// KIR3DL3 /// KIR3DL3 /// KIR3DS1 (11738374_at) / RFU C1QL1 (11718748_at) / Fold change /veh C1QL1 (11718748_at) / RFU TMPRSS4 (11747572_a_at) / Fold change /veh TMPRSS4 (11747572_a_at) / RFU HAMP (11756126_x_at) / Fold change /veh HAMP (11756126_x_at) / RFU RNFT2 (11725882_a_at) / Fold change /veh RNFT2 (11725882_a_at) / RFU NR4A2 (11747474_a_at) / Fold change /veh NR4A2 (11747474_a_at) / RFU ABCC12 (11746883_a_at) / Fold change /veh ABCC12 (11746883_a_at) / RFU TMEM136 (11760407_x_at) / Fold change /veh TMEM136 (11760407_x_at) / RFU CLDN22 /// WWC2 (11732394_at) / Fold change /veh CLDN22 /// WWC2 (11732394_at) / RFU HLA-DPB1 (11760878_x_at) / Fold change /veh HLA-DPB1 (11760878_x_at) / RFU SPINT1 (11716480_a_at) / Fold change /veh SPINT1 (11716480_a_at) / RFU GAP43 (11754022_s_at) / Fold change /veh GAP43 (11754022_s_at) / RFU A4GNT (11735810_at) / Fold change /veh A4GNT (11735810_at) / RFU PRB3 (11715151_x_at) / Fold change /veh PRB3 (11715151_x_at) / RFU TUBB4B (11761932_at) / Fold change /veh TUBB4B (11761932_at) / RFU CAPN14 (11732068_a_at) / Fold change /veh CAPN14 (11732068_a_at) / RFU TMCC2 (11721928_a_at) / Fold change /veh TMCC2 (11721928_a_at) / RFU IRGQ (11745062_a_at) / Fold change /veh IRGQ (11745062_a_at) / RFU FAM174B (11720279_a_at) / Fold change /veh FAM174B (11720279_a_at) / RFU TMPRSS4 (11748680_a_at) / Fold change /veh TMPRSS4 (11748680_a_at) / RFU FAM212B (11763350_a_at) / Fold change /veh FAM212B (11763350_a_at) / RFU PLEKHG5 (11743358_a_at) / Fold change /veh PLEKHG5 (11743358_a_at) / RFU ZSCAN30 (11745921_a_at) / Fold change /veh ZSCAN30 (11745921_a_at) / RFU CMKLR1 (11741424_a_at) / Fold change /veh CMKLR1 (11741424_a_at) / RFU LOC101060620 /// MAPK8IP1 (11723275_at) / Fold change /veh LOC101060620 /// MAPK8IP1 (11723275_at) / RFU SPTSSB (11747773_x_at) / Fold change /veh SPTSSB (11747773_x_at) / RFU PRSS12 (11739890_at) / Fold change /veh PRSS12 (11739890_at) / RFU BIN1 (11741810_x_at) / Fold change /veh BIN1 (11741810_x_at) / RFU WNT11 (11732464_a_at) / Fold change /veh WNT11 (11732464_a_at) / RFU C10orf10 (11716521_a_at) / Fold change /veh C10orf10 (11716521_a_at) / RFU C5orf56 (11738089_at) / Fold change /veh C5orf56 (11738089_at) / RFU CYB561 (11721691_x_at) / Fold change /veh CYB561 (11721691_x_at) / RFU ANKRD19P (11752326_a_at) / Fold change /veh ANKRD19P (11752326_a_at) / RFU OR2T12 /// OR2T33 /// OR2T8 (11738714_s_at) / Fold change /veh OR2T12 /// OR2T33 /// OR2T8 (11738714_s_at) / RFU VCAN (11748164_a_at) / Fold change /veh VCAN (11748164_a_at) / RFU JSRP1 (11732532_at) / Fold change /veh JSRP1 (11732532_at) / RFU KRTAP10-11 (11738290_x_at) / Fold change /veh KRTAP10-11 (11738290_x_at) / RFU MYO3A (11730013_a_at) / Fold change /veh MYO3A (11730013_a_at) / RFU EBF3 (11725865_a_at) / Fold change /veh EBF3 (11725865_a_at) / RFU CAMK2N1 (11719241_x_at) / Fold change /veh CAMK2N1 (11719241_x_at) / RFU C5orf56 (11738088_a_at) / Fold change /veh C5orf56 (11738088_a_at) / RFU OLFML3 (11715873_a_at) / Fold change /veh OLFML3 (11715873_a_at) / RFU LOC100653217 /// NTM (11731650_a_at) / Fold change /veh LOC100653217 /// NTM (11731650_a_at) / RFU MAPK11 (11762145_a_at) / Fold change /veh MAPK11 (11762145_a_at) / RFU FIZ1 (11724087_x_at) / Fold change /veh FIZ1 (11724087_x_at) / RFU OASL (11726364_x_at) / Fold change /veh OASL (11726364_x_at) / RFU SOX15 (11748057_x_at) / Fold change /veh SOX15 (11748057_x_at) / RFU CD79A (11719716_a_at) / Fold change /veh CD79A (11719716_a_at) / RFU HIST1H1D (11736915_at) / Fold change /veh HIST1H1D (11736915_at) / RFU CASKIN2 (11723855_a_at) / Fold change /veh CASKIN2 (11723855_a_at) / RFU LOC730098 (11760151_x_at) / Fold change /veh LOC730098 (11760151_x_at) / RFU OR4N2 (11742367_at) / Fold change /veh OR4N2 (11742367_at) / RFU PRRT2 (11749266_a_at) / Fold change /veh PRRT2 (11749266_a_at) / RFU SNX32 (11753110_a_at) / Fold change /veh SNX32 (11753110_a_at) / RFU CDHR5 (11726645_a_at) / Fold change /veh CDHR5 (11726645_a_at) / RFU RCAN1 (11760418_a_at) / Fold change /veh RCAN1 (11760418_a_at) / RFU FAM167A (11723789_a_at) / Fold change /veh FAM167A (11723789_a_at) / RFU FAM26E (11764081_at) / Fold change /veh FAM26E (11764081_at) / RFU ISYNA1 (11749810_s_at) / Fold change /veh ISYNA1 (11749810_s_at) / RFU ACY1 (11761880_at) / Fold change /veh ACY1 (11761880_at) / RFU 11764098_at / Fold change /veh 11764098_at / RFU SAMD14 (11745864_x_at) / Fold change /veh SAMD14 (11745864_x_at) / RFU NPB (11741838_a_at) / Fold change /veh NPB (11741838_a_at) / RFU TMPRSS6 (11731388_a_at) / Fold change /veh TMPRSS6 (11731388_a_at) / RFU KRTAP10-2 (11738614_at) / Fold change /veh KRTAP10-2 (11738614_at) / RFU ARHGAP8 /// PRR5-ARHGAP8 (11727945_x_at) / Fold change /veh ARHGAP8 /// PRR5-ARHGAP8 (11727945_x_at) / RFU KRTAP5-7 /// NADSYN1 (11734609_at) / Fold change /veh KRTAP5-7 /// NADSYN1 (11734609_at) / RFU RASL12 (11751679_a_at) / Fold change /veh RASL12 (11751679_a_at) / RFU CDKN2B (11736163_a_at) / Fold change /veh CDKN2B (11736163_a_at) / RFU PRF1 (11729649_at) / Fold change /veh PRF1 (11729649_at) / RFU, ZNF638 /// ZNF638-IT1 / Fold change vs veh, ZNF638 /// ZNF638-IT1 / RFU, PANK3 / Fold change vs veh, PANK3 / RFU, SH3YL1 / Fold change vs veh, SH3YL1 / RFU, ZEB2 / Fold change vs veh, ZEB2 / RFU, NRIP1 / Fold change vs veh, NRIP1 / RFU, PTTG1IP / Fold change vs veh, PTTG1IP / RFU, CAPN2 / Fold change vs veh, CAPN2 / RFU, MED14 / Fold change vs veh, MED14 / RFU, SNORA58 / Fold change vs veh, SNORA58 / RFU, C1orf63 / Fold change vs veh, C1orf63 / RFU, LRRFIP1 / Fold change vs veh, LRRFIP1 / RFU, NDUFAF7 / Fold change vs veh, NDUFAF7 / RFU, SLC12A2 / Fold change vs veh, SLC12A2 / RFU, IBTK / Fold change vs veh, IBTK / RFU, ESF1 / Fold change vs veh, ESF1 / Fold change vs veh, TMEM50B / RFU, TAOK1 / Fold change vs veh, TAOK1 / RFU, ACBD3 / Fold change vs veh, ACBD3 / RFU, TMA16 / Fold change vs veh, TMA16 / RFU, RWDD3 / Fold change vs veh, RWDD3 / RFU, BCAT1 / Fold change vs veh, BCAT1 / RFU, EDEM3 / Fold change vs veh, EDEM3 / RFU, TMEM33 / Fold change vs veh, TMEM33 / RFU, WDR75 / Fold change vs veh, WDR75 / RFU, AHCTF1 / Fold change vs veh, AHCTF1 / RFU, TFRC / Fold change vs veh, TFRC / RFU, ZDHHC17 / Fold change vs veh, ZDHHC17 / RFU, NOM1 / Fold change vs veh, NOM1 / RFU, ARL8B / Fold change vs veh, ARL8B / RFU, ZBTB11 / Fold change vs veh, ZBTB11 / RFU, TAMM41 / Fold change vs veh, TAMM41 / RFU, KIAA1704 /// LOC100996395 / Fold change vs veh, KIAA1704 /// LOC100996395 / RFU, ING1 / Fold change vs veh, ING1 / RFU, TRMT61B / Fold change vs veh, TRMT61B / RFU, FUBP3 / Fold change vs veh, FUBP3 / RFU, TP53 / Fold change vs veh, TP53 / RFU, TNKS2 / Fold change vs veh, TNKS2 / RFU, ZFP14 / Fold change vs veh, ZFP14 / RFU, ACTR2 / Fold change vs veh, ACTR2 / RFU, PPP3R1 / Fold change vs veh, PPP3R1 / RFU, PIK3R1 / Fold change vs veh, PIK3R1 / RFU, HNRNPA1 / Fold change vs veh, HNRNPA1 / RFU, RNF170 / Fold change vs veh, RNF170 / RFU, ZNF28 / Fold change vs veh, ZNF28 / RFU, RNGTT / Fold change vs veh, RNGTT / RFU, OGT / Fold change vs veh, OGT / RFU, BRD1 / Fold change vs veh, BRD1 / RFU, MARS / Fold change vs veh, MARS / RFU, ZNF655 / Fold change vs veh, ZNF655 / RFU, FAHD1 / Fold change vs veh, FAHD1 / RFU, BDP1 / Fold change vs veh, BDP1 / RFU, LRRCC1 / Fold change vs veh, LRRCC1 / RFU, ARID1A / Fold change vs veh, ARID1A / RFU, ZNF146 / Fold change vs veh, ZNF146 / RFU, ZNF330 / Fold change vs veh, ZNF330 / RFU, GPN3 / Fold change vs veh, GPN3 / RFU, C9orf123 / Fold change vs veh, C9orf123 / RFU, N4BP2L2 / Fold change vs veh, N4BP2L2 / RFU, ARFIP1 / Fold change vs veh, ARFIP1 / RFU, FAM179B / Fold change vs veh, FAM179B / RFU, BCL10 / Fold change vs veh, BCL10 / RFU, UHRF1BP1L / Fold change vs veh, UHRF1BP1L / RFU, BET1 / Fold change vs veh, BET1 / RFU, CNOT2 / Fold change vs veh, CNOT2 / RFU, ZNF268 / Fold change vs veh, ZNF268 / Fold change vs veh, ZNF507 / RFU, DGCR2 / Fold change vs veh, DGCR2 / RFU, WDSUB1 / Fold change vs veh, WDSUB1 / Fold change vs veh, HSP90B1 /// MIR3652 / RFU, ADSS / Fold change vs veh, ADSS / RFU, GK / Fold change vs veh, GK / RFU, ZNF148 / Fold change vs veh, ZNF148 / RFU, TAF9 / Fold change vs veh, TAF9 / RFU, SLC1A5 / Fold change vs veh, SLC1A5 / RFU, SLMO2 / Fold change vs veh, SLMO2 / RFU, ABCC4 / Fold change vs veh, ABCC4 / RFU, LOC101060439 /// RAP1B / Fold change vs veh, LOC101060439 /// RAP1B / RFU, RFX7 / Fold change vs veh, RFX7 / RFU, GTPBP10 / Fold change vs veh, GTPBP10 / RFU, CNEP1R1 / Fold change vs veh, CNEP1R1 / RFU, BIVM-ERCC5 /// ERCC5 / Fold change vs veh, BIVM-ERCC5 /// ERCC5 / RFU, ILF3 / Fold change vs veh, ILF3 / RFU 11762660_at / Fold change /veh 11762660_at / RFU VCAN (11757783_s_at) / Fold change /veh VCAN (11757783_s_at) / RFU DDX43 (11728927_at) / Fold change /veh DDX43 (11728927_at) / RFU KRT8 (11758188_x_at) / Fold change /veh KRT8 (11758188_x_at) / RFU NKD1 (11759106_at) / Fold change /veh NKD1 (11759106_at) / RFU SRD5A1 (11742802_a_at) / Fold change /veh SRD5A1 (11742802_a_at) / RFU TPSAB1 /// TPSB2 (11721975_s_at) / Fold change /veh TPSAB1 /// TPSB2 (11721975_s_at) / RFU GSTM3 (11746129_a_at) / Fold change /veh GSTM3 (11746129_a_at) / RFU IL23R (11737362_x_at) / Fold change /veh IL23R (11737362_x_at) / RFU TMEM51 (11727254_a_at) / Fold change /veh TMEM51 (11727254_a_at) / RFU PIWIL2 (11732686_x_at) / Fold change /veh PIWIL2 (11732686_x_at) / RFU ORM1 (11744905_x_at) / Fold change /veh ORM1 (11744905_x_at) / RFU CCDC152 (11743942_at) / Fold change /veh CCDC152 (11743942_at) / RFU ECM1 (11717891_a_at) / Fold change /veh ECM1 (11717891_a_at) / RFU IL23R (11748794_a_at) / Fold change /veh IL23R (11748794_a_at) / RFU TNFAIP8L3 (11732012_x_at) / Fold change /veh TNFAIP8L3 (11732012_x_at) / RFU MBOAT4 (11741988_at) / Fold change /veh MBOAT4 (11741988_at) / RFU 11764193_at / Fold change /veh 11764193_at / RFU TMEM53 (11763286_at) / Fold change /veh TMEM53 (11763286_at) / RFU MAGEB2 (11727129_at) / Fold change /veh MAGEB2 (11727129_at) / RFU TMEM200A (11744735_a_at) / Fold change /veh TMEM200A (11744735_a_at) / RFU CCDC152 (11751479_a_at) / Fold change /veh CCDC152 (11751479_a_at) / RFU FAM211A (11726209_a_at) / Fold change /veh FAM211A (11726209_a_at) / RFU RGS16 (11746705_a_at) / Fold change /veh RGS16 (11746705_a_at) / RFU VCAN (11755009_s_at) / Fold change /veh VCAN (11755009_s_at) / RFU RHOB (11743442_s_at) / Fold change /veh RHOB (11743442_s_at) / RFU RGS16 (11720943_a_at) / Fold change /veh RGS16 (11720943_a_at) / RFU RGS16 (11720944_at) / Fold change /veh RGS16 (11720944_at) / RFU, VPS4B / Fold change vs veh, VPS4B / RFU, CREB1 / Fold change vs veh, CREB1 / RFU, DNAJC13 / Fold change vs veh, DNAJC13 / RFU, GNAQ / Fold change vs veh, GNAQ / RFU, CDK5R1 / Fold change vs veh, CDK5R1 / RFU, ZRANB3 / Fold change vs veh, ZRANB3 / RFU, CUL4A / Fold change vs veh, CUL4A / RFU, CCNY / Fold change vs veh, CCNY / RFU, UFL1 / Fold change vs veh, UFL1 / RFU, COG3 / Fold change vs veh, COG3 / RFU, DIAPH2 / Fold change vs veh, DIAPH2 / RFU, SKA2 / Fold change vs veh, SKA2 / RFU, AFF3 / Fold change vs veh, AFF3 / RFU, LMF1 / Fold change vs veh, LMF1 / RFU, IPO11 / Fold change vs veh, IPO11 / RFU, DFFB / Fold change vs veh, DFFB / RFU, FOXP1 / Fold change vs veh, FOXP1 / RFU, CARD8 / Fold change vs veh, CARD8 / RFU, STRN3 / Fold change vs veh, STRN3 / RFU, ADK / Fold change vs veh, ADK / RFU, RASSF2 / Fold change vs veh, RASSF2 / RFU, WIPF1 / Fold change vs veh, WIPF1 / RFU, LARP1B / Fold change vs veh, LARP1B / RFU, RASA1 / Fold change vs veh, RASA1 / RFU, RB1 / Fold change vs veh, RB1 / RFU, PPFIA1 / Fold change vs veh, PPFIA1 / RFU, MAT2A / Fold change vs veh, MAT2A / RFU, CCT5 / Fold change vs veh, CCT5 / RFU, WDR92 / Fold change vs veh, WDR92 / RFU, CUX1 / Fold change vs veh, CUX1 / RFU, TTC7A / Fold change vs veh, TTC7A / RFU, TMEM135 / Fold change vs veh, TMEM135 / RFU, DEPTOR / Fold change vs veh, DEPTOR / RFU, CPM / Fold change vs veh, CPM / RFU, DNAJB6 / Fold change vs veh, DNAJB6 / RFU, CACNA2D3 / Fold change vs veh, CACNA2D3 / RFU, DTX4 / Fold change vs veh, DTX4 / RFU, TFCP2 / Fold change vs veh, TFCP2 / RFU, GMCL1 /// GMCL1P1 / Fold change vs veh, GMCL1 /// GMCL1P1 / RFU, AEBP2 / Fold change vs veh, AEBP2 / RFU, SNHG1 /// SNORD22 /// SNORD25 /// SNORD26 /// SNORD27 /// SNORD28 /// SNORD29 /// SNORD31 / Fold change vs veh, SNHG1 /// SNORD22 /// SNORD25 /// SNORD26 /// SNORD27 /// SNORD28 /// SNORD29 /// SNORD31 / Fold change (Aza/veh), C12orf56 (ProbeSet 11735607_a_at) / Fold change (ACY-1035/veh), C12orf56 (ProbeSet 11735607_a_at) / Fold change (Aza/veh), FGFR1OP (ProbeSet 11751329_s_at) / Fold change (ACY-1035/veh), FGFR1OP (ProbeSet 11751329_s_at) / Fold change (Aza/veh), VPS36 (ProbeSet 11739960_a_at) / Fold change (ACY-1035/veh), VPS36 (ProbeSet 11739960_a_at) / RFU SYPL1 (11715823_x_at) / Fold change /veh SYPL1 (11715823_x_at) / RFU IGFBP7 (11715501_s_at) / Fold change /veh IGFBP7 (11715501_s_at) / RFU REEP3 (11722064_at) / Fold change /veh REEP3 (11722064_at) / RFU IGLL1 (11728026_x_at) / Fold change /veh IGLL1 (11728026_x_at): dose or concentration left out as unconfirmed
Settings: MV-4-11 cells, 48 hours

Nc1ncn([C@@H]2O[C@H](CO)[C@@H](O)[C@H]2O)c(=O)n1 [azacitidine]
RFU TMPRSS4 (11747572_a_at): 53.17 RFU
